Reference: article PMC8949366, “Synthesis of Marine Cyclopeptide Galaxamide Analogues as Potential Anticancer Agents” (Marine Drugs, 2022)
Converted amounts (≈) assume the structure as drawn. Square brackets hold non-standard residues; d marks the D form. Peptide text beside a SMILES is read from it. NMeL = CN[C@@H](CC(C)C)C(=O)O

What was measured:
[1] = tested on: A549; format: cell-based, human; details: 72 h
Method: (§1) Cell culture: MCF-7/MD-MAB-231 (human breast cancer cell line ATCC HTB-22/HTB-26), Hep G2 (human liver cancer cell line ATCC HB-8065), Hela (human cervical carcinoma cell line ATCC CCL-2), A459 (human lung cancer cell line ATCC CCL-185), and HUVEC (primary umbilical vein endothelial cell line ATCC PCS-100-010) were obtained from the Jinan Department of Pathology, University School of Medicine (Jinan University, Guangzhou, China). The cells were cultured in a Modified Eagle’s Medium (DMEM) including 10% fetal bovine serum, 1% penicillin-streptomycin, and antifungal agent, and cultured under standard conditions (5% CO2 atmosphere and temperature at 37 °C). The MTT method was used to evaluate the cytotoxicities of galaxamide and its analogues on the five cancerous cells. In this experiment, the number of regulated cells was 2 × 10^3 cells/well. Then, the cells, as well as galaxamide and its analogues of different concentrations (0, 2.5, 5, and 10 μg/mL), were seeded on a 96-well cell culture plate and cultured in a 37 °C, 5% CO2 incubator for 72 h. After that, 20 µL/well of MTT solution (5 mg/mL phosphate-buffered saline) was added and incubated for 5 h. The medium was discarded and replaced with 100 µL/well of DMSO to dissolve the formazan salt. The color intensity of the cell culture at 570 nm was measured using a microplate spectrophotometer (SpectroAma™ 250, Winooski, VT, USA).

[2] = tested on: HUVEC; format: cell-based, human; details: 72 h
Method: as §1

[3] = tested on: Hela; format: cell-based, human; details: 72 h
Method: as §1

[4] = tested on: HepG2; format: cell-based, human; details: 72 h
Method: as §1

[5] = tested on: MCF-7; format: cell-based, human; details: 72 h
Method: as §1

[6] = tested on: MD-MBA-231; format: cell-based, human; details: 72 h
Method: as §1

[7] = tested on: MCF-7 cells; assay: Cell cycle distribution by propidium iodide staining / flow cytometry; format: cell-based, human; details: 0, 2.5, 5, 10 µg/mL, 72 h
Method: Therefore, propidium iodide (PI) staining method was used to further investigate the changes in the cell cycle distribution of MCF-7. In particular, MCF-7 cells were exposed to galaxamide, Z-3, and Z-6 with concentrations of 0, 2.5, 5, and 10 µg/mL for 72 h. Generally, the main effects of galaxamide, Z-3, and Z-6 on MCF-7 cells were in the G0/G1 phase. There was no obvious sub diploid peak in flow cytometry.
(§2) The concentration of 1 × 10^4 cells per well of MCF-7 cells were seeded in 96-well plates. The cell cultures were added to the compounds with a concentration of 0, 2.5, 5, and 10 µg/mL, and incubated for 72 h. After that, 5 µL of Annexin V-fluorescein isothiocyanate (FITC) and 5 µL of PI were added for dual staining of the cells for analysis by FACS flow cytometry. Cell cycles and apoptotic cells were determined by counting the FITC-positive and PI-negative fractions.

[8] = tested on: MCF-7 cells; assay: Annexin V-FITC/PI double staining apoptosis, flow cytometry; format: cell-based, human; details: 0, 2.5, 5, 10 µg/mL, 72 h
Method: The Annexin V-FITC/PI double staining method was used to analyze the changes in the apoptosis of MCF-7 cells after 72 h of galaxamide, Z-3, and Z-6 exposure. […] At low concentrations, the effects of all the tested compounds were not obvious. When the concentration reached 10 μg/mL, the apoptotic effects of galaxamide, Z-3, and Z-6 on MCF-7 cells were more obvious in the late apoptotic state.
as §2
The apoptotic cells were quantified according to the instructions provided in an Annexin V-FITC (Sigma-Aldrich, St. Louis, MO, USA) cell apoptosis assay kit. Briefly, about 1.5 × 10^5 cells were plated in 96-well plates and treated with galaxamide and its representative analogues (0, 2.5, 5, and 10 µg/mL) for 48 h. The cells were then resuspended in a […] binding buffer. Afterward, […] of annexin V-fluorescein isothiocyanate (FITC) was added, followed by incubation in darkness at room temperature for 10 min. The cells were again resuspended in […] binding buffer and stained with […] PI. The prepared cells were then analyzed using a flow cytometry (Coulter Epics Elite, Miami, FL, USA). The cells in the FITC-positive and PI-negative fractions were regarded as apoptotic cells.

[9] = tested on: MCF-7 cells; assay: Hoechst 33,342 staining of nuclear morphology; format: cell-based, human; details: 72 h
Method: The morphological alteration of MCF-7 cells was analyzed by the method of Hoechst 33,342 staining (Figure 5). […] The pyknotic nuclei increased with the increasing concentration of these compounds.
[…] After that, the cell culture was washed with 1 mL of PBS and then added with 3 mL of 4% paraformaldehyde solution for 15 min. Then, 1 mL of the prepared Hoechst 33,342 staining solution was added. The resulting mixture was incubated at room temperature for 15 min in the dark.

[10] = tested on: GRC-1; set-up: method as in PMID 18816120; details: cited from earlier work
[11] = tested on: HepG2; set-up: method as in PMID 18816120; details: cited from earlier work

CC(C)C[C@@H]1NC(=O)[C@H](CC(C)C)N(C)C(=O)[C@H](CC(C)C)NC(=O)[C@H](CC(C)C)N(C)C(=O)[C@H](CC(C)C)NC1=O [galaxamide] (cyclo(LL[NMeL]L[NMeL]))
IC50 A549 [1]: 6.99 ± 0.63 µg/mL (≈ 11.8 µM)
IC50 HUVEC [2]: >40 µg/mL
IC50 Hela [3]: 8.53 ± 0.73 µg/mL (≈ 14.4 µM)
IC50 HepG2 [4]: 5.20 ± 0.52 µg/mL (≈ 8.76 µM)
IC50 MCF-7 [5]: 11.33 ± 2.95 µg/mL (≈ 19.1 µM)
IC50 MD-MBA-231 [6]: 8.73 ± 0.29 µg/mL (≈ 14.7 µM)
Effect on cell cycle of MCF-7 (in words) [7]: mainly blocked the growth of cells in the G0/G1 phase
Apoptosis of MCF-7 cells (in words) [8]: apoptosis rate of MCF-7 increased with the increasing of the concentration
Nuclear morphology of MCF-7 cells (in words) [9]: the morphology of the nuclei was significantly changed
Antitumor activity against GRC-1 (in words) [10]: significant antitumor activities
Antitumor activity against HepG2 (in words) [11]: significant antitumor activities
